Experimental data taken from patent publication US12391648B2, “Pyridyloxy thioester derivative and preparation method therefor, herbicidal composition, and application” (Qingdao Kingagroot Chemical Compound Co., Ltd., priority 2018, dated 2025).

Tested on: Abutilon theophrasti
Test: Post-emergence test experiment (Table 3, 1000 g/ha)
Type: in vivo
Details: post-emergence spray, after 3 weeks, fresh weight inhibition
Outline: (§1)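 Weed seeds sown in soil-filled pots in greenhouse, sprayed at 2-3 leaf stage (2 weeks after sowing) with compound in acetone/tween-80 plus methyl oleate emulsible concentrate (1.5 L/ha) diluted in water. Fresh-weight growth inhibition scored after 3 weeks on 0-5 scale (5: >85%, 0: <5%).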

Compound	Activity level (growth inhibition rate) Abutilon theophrasti
Cc1cn(C)nc1SC(=O)C(C)Oc1nc(F)c(Cl)c(N)c1Cl (stereo not drawn) [Compound 119]	5 (Level 5: the growth inhibition rate is greater than 85%)
CC(Oc1nc(F)c(Cl)c(N)c1Cl)C(=O)SCC(=O)N(C)C (stereo not drawn) [Compound 99]	5 (Level 5: the growth inhibition rate is greater than 85%)
CC(Oc1nc(F)c(Cl)c(N)c1Cl)C(=O)SCC(F)F (stereo not drawn) [Compound 157]	5 (Level 5: the growth inhibition rate is greater than 85%)
CSC(=O)C(C)Oc1nc(F)c(Cl)c(N)c1C (stereo not drawn) [Compound 20]	5 (Level 5: the growth inhibition rate is greater than 85%)
CCOC(=O)SC(=O)C(C)Oc1nc(F)c(Cl)c(N)c1Cl (stereo not drawn) [Compound 101]	5 (Level 5: the growth inhibition rate is greater than 85%)
CCC(C)(C)SC(=O)C(C)Oc1nc(F)c(Cl)c(N)c1Cl (stereo not drawn) [Compound 149]	5 (Level 5: the growth inhibition rate is greater than 85%)
CC(Oc1nc(F)c(Cl)c(N)c1Cl)C(=O)SC(N)C(=O)O (stereo not drawn) [Compound 103]	5 (Level 5: the growth inhibition rate is greater than 85%)
CCCCCCCSC(=O)C(C)Oc1nc(F)c(Cl)c(N)c1Cl (stereo not drawn) [Compound 139]	5 (Level 5: the growth inhibition rate is greater than 85%)
COSC(=O)C(C)Oc1nc(F)c(Cl)c(N)c1Cl (stereo not drawn) [Compound 83]	5 (Level 5: the growth inhibition rate is greater than 85%)
COCCSC(=O)C(C)Oc1nc(F)c(Cl)c(N)c1Cl (stereo not drawn) [Compound 85]	5 (Level 5: the growth inhibition rate is greater than 85%)
CC(Oc1nc(F)c(Cl)c(N)c1Cl)C(=O)SC1CC1 (stereo not drawn) [Compound 81]	5 (Level 5: the growth inhibition rate is greater than 85%)
CSC(=O)C(C)Oc1nc(F)c(Br)c(N)c1Br (stereo not drawn) [Compound 12]	5 (Level 5: the growth inhibition rate is greater than 85%)
CCCc1c(OC(C)C(=O)SCC(F)(F)F)nc(Br)c(Cl)c1N (stereo not drawn) [Compound 18]	5 (Level 5: the growth inhibition rate is greater than 85%)

Tested on: Monochoria vaginalis
Test: as above
Type: in vivo
Details: post-emergence spray, after 3 weeks, fresh weight inhibition
Outline: as §1

Compound	Activity level (growth inhibition rate) Monochoria Vaginalis
Cc1cn(C)nc1SC(=O)C(C)Oc1nc(F)c(Cl)c(N)c1Cl (stereo not drawn) [Compound 119]	5 (Level 5: the growth inhibition rate is greater than 85%)
CC(Oc1nc(F)c(Cl)c(N)c1Cl)C(=O)SCC(=O)N(C)C (stereo not drawn) [Compound 99]	5 (Level 5: the growth inhibition rate is greater than 85%)
CC(Oc1nc(F)c(Cl)c(N)c1Cl)C(=O)SCC(F)F (stereo not drawn) [Compound 157]	5 (Level 5: the growth inhibition rate is greater than 85%)
CSC(=O)C(C)Oc1nc(F)c(Cl)c(N)c1C (stereo not drawn) [Compound 20]	5 (Level 5: the growth inhibition rate is greater than 85%)
CCOC(=O)SC(=O)C(C)Oc1nc(F)c(Cl)c(N)c1Cl (stereo not drawn) [Compound 101]	5 (Level 5: the growth inhibition rate is greater than 85%)
CCC(C)(C)SC(=O)C(C)Oc1nc(F)c(Cl)c(N)c1Cl (stereo not drawn) [Compound 149]	5 (Level 5: the growth inhibition rate is greater than 85%)
CC(Oc1nc(F)c(Cl)c(N)c1Cl)C(=O)SC(N)C(=O)O (stereo not drawn) [Compound 103]	5 (Level 5: the growth inhibition rate is greater than 85%)
CCCCCCCSC(=O)C(C)Oc1nc(F)c(Cl)c(N)c1Cl (stereo not drawn) [Compound 139]	5 (Level 5: the growth inhibition rate is greater than 85%)
COSC(=O)C(C)Oc1nc(F)c(Cl)c(N)c1Cl (stereo not drawn) [Compound 83]	5 (Level 5: the growth inhibition rate is greater than 85%)
COCCSC(=O)C(C)Oc1nc(F)c(Cl)c(N)c1Cl (stereo not drawn) [Compound 85]	5 (Level 5: the growth inhibition rate is greater than 85%)
CC(Oc1nc(F)c(Cl)c(N)c1Cl)C(=O)SC1CC1 (stereo not drawn) [Compound 81]	5 (Level 5: the growth inhibition rate is greater than 85%)
CSC(=O)C(C)Oc1nc(F)c(Br)c(N)c1Br (stereo not drawn) [Compound 12]	5 (Level 5: the growth inhibition rate is greater than 85%)
CCCc1c(OC(C)C(=O)SCC(F)(F)F)nc(Br)c(Cl)c1N (stereo not drawn) [Compound 18]	5 (Level 5: the growth inhibition rate is greater than 85%)

Tested on: Galium spurium
Test: as above
Type: in vivo
Details: post-emergence spray, after 3 weeks, fresh weight inhibition
Outline: as §1

Compound	Activity level (growth inhibition rate) Galium spurium
Cc1cn(C)nc1SC(=O)C(C)Oc1nc(F)c(Cl)c(N)c1Cl (stereo not drawn) [Compound 119]	5 (Level 5: the growth inhibition rate is greater than 85%)
CC(Oc1nc(F)c(Cl)c(N)c1Cl)C(=O)SCC(=O)N(C)C (stereo not drawn) [Compound 99]	5 (Level 5: the growth inhibition rate is greater than 85%)
CC(Oc1nc(F)c(Cl)c(N)c1Cl)C(=O)SCC(F)F (stereo not drawn) [Compound 157]	5 (Level 5: the growth inhibition rate is greater than 85%)
CSC(=O)C(C)Oc1nc(F)c(Cl)c(N)c1C (stereo not drawn) [Compound 20]	5 (Level 5: the growth inhibition rate is greater than 85%)
CCOC(=O)SC(=O)C(C)Oc1nc(F)c(Cl)c(N)c1Cl (stereo not drawn) [Compound 101]	5 (Level 5: the growth inhibition rate is greater than 85%)
CCC(C)(C)SC(=O)C(C)Oc1nc(F)c(Cl)c(N)c1Cl (stereo not drawn) [Compound 149]	5 (Level 5: the growth inhibition rate is greater than 85%)
CC(Oc1nc(F)c(Cl)c(N)c1Cl)C(=O)SC(N)C(=O)O (stereo not drawn) [Compound 103]	5 (Level 5: the growth inhibition rate is greater than 85%)
CCCCCCCSC(=O)C(C)Oc1nc(F)c(Cl)c(N)c1Cl (stereo not drawn) [Compound 139]	5 (Level 5: the growth inhibition rate is greater than 85%)
COSC(=O)C(C)Oc1nc(F)c(Cl)c(N)c1Cl (stereo not drawn) [Compound 83]	5 (Level 5: the growth inhibition rate is greater than 85%)
COCCSC(=O)C(C)Oc1nc(F)c(Cl)c(N)c1Cl (stereo not drawn) [Compound 85]	5 (Level 5: the growth inhibition rate is greater than 85%)
CC(Oc1nc(F)c(Cl)c(N)c1Cl)C(=O)SC1CC1 (stereo not drawn) [Compound 81]	5 (Level 5: the growth inhibition rate is greater than 85%)
CSC(=O)C(C)Oc1nc(F)c(Br)c(N)c1Br (stereo not drawn) [Compound 12]	5 (Level 5: the growth inhibition rate is greater than 85%)
CCCc1c(OC(C)C(=O)SCC(F)(F)F)nc(Br)c(Cl)c1N (stereo not drawn) [Compound 18]	5 (Level 5: the growth inhibition rate is greater than 85%)

Tested on: Leptochloa chinensis
Test: as above
Type: in vivo
Details: post-emergence spray, after 3 weeks, fresh weight inhibition
Outline: as §1

Compound	Activity level (growth inhibition rate) Leptochloa chinensis
Cc1cn(C)nc1SC(=O)C(C)Oc1nc(F)c(Cl)c(N)c1Cl (stereo not drawn) [Compound 119]	5 (Level 5: the growth inhibition rate is greater than 85%)
CC(Oc1nc(F)c(Cl)c(N)c1Cl)C(=O)SCC(=O)N(C)C (stereo not drawn) [Compound 99]	5 (Level 5: the growth inhibition rate is greater than 85%)
CC(Oc1nc(F)c(Cl)c(N)c1Cl)C(=O)SCC(F)F (stereo not drawn) [Compound 157]	5 (Level 5: the growth inhibition rate is greater than 85%)
CSC(=O)C(C)Oc1nc(F)c(Cl)c(N)c1C (stereo not drawn) [Compound 20]	5 (Level 5: the growth inhibition rate is greater than 85%)
CCOC(=O)SC(=O)C(C)Oc1nc(F)c(Cl)c(N)c1Cl (stereo not drawn) [Compound 101]	5 (Level 5: the growth inhibition rate is greater than 85%)
CCC(C)(C)SC(=O)C(C)Oc1nc(F)c(Cl)c(N)c1Cl (stereo not drawn) [Compound 149]	5 (Level 5: the growth inhibition rate is greater than 85%)
CC(Oc1nc(F)c(Cl)c(N)c1Cl)C(=O)SC(N)C(=O)O (stereo not drawn) [Compound 103]	5 (Level 5: the growth inhibition rate is greater than 85%)
CCCCCCCSC(=O)C(C)Oc1nc(F)c(Cl)c(N)c1Cl (stereo not drawn) [Compound 139]	5 (Level 5: the growth inhibition rate is greater than 85%)
COSC(=O)C(C)Oc1nc(F)c(Cl)c(N)c1Cl (stereo not drawn) [Compound 83]	5 (Level 5: the growth inhibition rate is greater than 85%)
COCCSC(=O)C(C)Oc1nc(F)c(Cl)c(N)c1Cl (stereo not drawn) [Compound 85]	5 (Level 5: the growth inhibition rate is greater than 85%)
CC(Oc1nc(F)c(Cl)c(N)c1Cl)C(=O)SC1CC1 (stereo not drawn) [Compound 81]	5 (Level 5: the growth inhibition rate is greater than 85%)
CSC(=O)C(C)Oc1nc(F)c(Br)c(N)c1Br (stereo not drawn) [Compound 12]	5 (Level 5: the growth inhibition rate is greater than 85%)
CCCc1c(OC(C)C(=O)SCC(F)(F)F)nc(Br)c(Cl)c1N (stereo not drawn) [Compound 18]	5 (Level 5: the growth inhibition rate is greater than 85%)

Tested on: Setaria viridis
Test: as above
Type: in vivo
Details: post-emergence spray, after 3 weeks, fresh weight inhibition
Outline: as §1

Compound	Activity level (growth inhibition rate) Setaria viridis
Cc1cn(C)nc1SC(=O)C(C)Oc1nc(F)c(Cl)c(N)c1Cl (stereo not drawn) [Compound 119]	5 (Level 5: the growth inhibition rate is greater than 85%)
CC(Oc1nc(F)c(Cl)c(N)c1Cl)C(=O)SCC(=O)N(C)C (stereo not drawn) [Compound 99]	5 (Level 5: the growth inhibition rate is greater than 85%)
CC(Oc1nc(F)c(Cl)c(N)c1Cl)C(=O)SCC(F)F (stereo not drawn) [Compound 157]	5 (Level 5: the growth inhibition rate is greater than 85%)
CSC(=O)C(C)Oc1nc(F)c(Cl)c(N)c1C (stereo not drawn) [Compound 20]	5 (Level 5: the growth inhibition rate is greater than 85%)
CCOC(=O)SC(=O)C(C)Oc1nc(F)c(Cl)c(N)c1Cl (stereo not drawn) [Compound 101]	5 (Level 5: the growth inhibition rate is greater than 85%)
CCC(C)(C)SC(=O)C(C)Oc1nc(F)c(Cl)c(N)c1Cl (stereo not drawn) [Compound 149]	5 (Level 5: the growth inhibition rate is greater than 85%)
CC(Oc1nc(F)c(Cl)c(N)c1Cl)C(=O)SC(N)C(=O)O (stereo not drawn) [Compound 103]	5 (Level 5: the growth inhibition rate is greater than 85%)
CCCCCCCSC(=O)C(C)Oc1nc(F)c(Cl)c(N)c1Cl (stereo not drawn) [Compound 139]	5 (Level 5: the growth inhibition rate is greater than 85%)
COSC(=O)C(C)Oc1nc(F)c(Cl)c(N)c1Cl (stereo not drawn) [Compound 83]	5 (Level 5: the growth inhibition rate is greater than 85%)
COCCSC(=O)C(C)Oc1nc(F)c(Cl)c(N)c1Cl (stereo not drawn) [Compound 85]	5 (Level 5: the growth inhibition rate is greater than 85%)
CC(Oc1nc(F)c(Cl)c(N)c1Cl)C(=O)SC1CC1 (stereo not drawn) [Compound 81]	5 (Level 5: the growth inhibition rate is greater than 85%)
CSC(=O)C(C)Oc1nc(F)c(Br)c(N)c1Br (stereo not drawn) [Compound 12]	5 (Level 5: the growth inhibition rate is greater than 85%)
CCCc1c(OC(C)C(=O)SCC(F)(F)F)nc(Br)c(Cl)c1N (stereo not drawn) [Compound 18]	5 (Level 5: the growth inhibition rate is greater than 85%)

Tested on: Digitaria sanguinalis
Test: as above
Type: in vivo
Details: post-emergence spray, after 3 weeks, fresh weight inhibition
Outline: as §1

Compound	Activity level (growth inhibition rate) Digitaria sanguinalis
Cc1cn(C)nc1SC(=O)C(C)Oc1nc(F)c(Cl)c(N)c1Cl (stereo not drawn) [Compound 119]	5 (Level 5: the growth inhibition rate is greater than 85%)
CC(Oc1nc(F)c(Cl)c(N)c1Cl)C(=O)SCC(=O)N(C)C (stereo not drawn) [Compound 99]	5 (Level 5: the growth inhibition rate is greater than 85%)
CC(Oc1nc(F)c(Cl)c(N)c1Cl)C(=O)SCC(F)F (stereo not drawn) [Compound 157]	5 (Level 5: the growth inhibition rate is greater than 85%)
CSC(=O)C(C)Oc1nc(F)c(Cl)c(N)c1C (stereo not drawn) [Compound 20]	5 (Level 5: the growth inhibition rate is greater than 85%)
CCOC(=O)SC(=O)C(C)Oc1nc(F)c(Cl)c(N)c1Cl (stereo not drawn) [Compound 101]	5 (Level 5: the growth inhibition rate is greater than 85%)
CCC(C)(C)SC(=O)C(C)Oc1nc(F)c(Cl)c(N)c1Cl (stereo not drawn) [Compound 149]	5 (Level 5: the growth inhibition rate is greater than 85%)
CC(Oc1nc(F)c(Cl)c(N)c1Cl)C(=O)SC(N)C(=O)O (stereo not drawn) [Compound 103]	5 (Level 5: the growth inhibition rate is greater than 85%)
CCCCCCCSC(=O)C(C)Oc1nc(F)c(Cl)c(N)c1Cl (stereo not drawn) [Compound 139]	5 (Level 5: the growth inhibition rate is greater than 85%)
COSC(=O)C(C)Oc1nc(F)c(Cl)c(N)c1Cl (stereo not drawn) [Compound 83]	5 (Level 5: the growth inhibition rate is greater than 85%)
COCCSC(=O)C(C)Oc1nc(F)c(Cl)c(N)c1Cl (stereo not drawn) [Compound 85]	5 (Level 5: the growth inhibition rate is greater than 85%)
CC(Oc1nc(F)c(Cl)c(N)c1Cl)C(=O)SC1CC1 (stereo not drawn) [Compound 81]	5 (Level 5: the growth inhibition rate is greater than 85%)
CSC(=O)C(C)Oc1nc(F)c(Br)c(N)c1Br (stereo not drawn) [Compound 12]	5 (Level 5: the growth inhibition rate is greater than 85%)
CCCc1c(OC(C)C(=O)SCC(F)(F)F)nc(Br)c(Cl)c1N (stereo not drawn) [Compound 18]	5 (Level 5: the growth inhibition rate is greater than 85%)
